The text below walks through data of patent US20050004211A1, “Pharmaceutical compositions comprising aryl-substituted acyclic enediyne compounds” (KAOHSIUNG MEDICAL UNIVERSITY, priority 2003, published 2005).

Values after ≈ are worked out from the molar mass of the structure shown. Where two headings read alike, the source gives them in different places.

Data set [1] concerns Breast cancer cell MCF-7. As to the kind of experiment: Preliminary cytotoxicity test. The class given is cell-based, human.
Data set [2] concerns Non-small cell Lung cancer cell NCI-H460. Nature of the data set: Preliminary cytotoxicity test. In kind it is cell-based, human.
Data set [3] relates to CNS cancer cell SF-268. As to the kind of experiment: Preliminary cytotoxicity test. In kind it is cell-based, human.
For data set [4], the system named is KB. The note with it: read-out: Cytotoxicities (IC50), KB; KB cell; earlier research work; cited from earlier work.
Data set [5] relates to Hep2,2,15. The note with it: read-out: Cytotoxicities (IC50), Hep2,2,15, earlier research work; cited from earlier work.
The test system of data set [6] is Hela: human cervix epitheloid carcinoma. Nature of the data set: In vitro anticancer assay (cytotoxicity), human solid tumor cells. The note with it: for IC50: Homo sapiens, HeLa, read-out: IC50 Values of Cytotoxicities, Hela.
Data set [7] has as its system DLD (DLD-1): human colon adenocarcinoma. Described as above. The note with it: for IC50: Homo sapiens, DLD-1, read-out: IC50 Values of Cytotoxicities, DLD.
For data set [8], the system named is NCI (NCI-H661): human lung large cell carcinoma. The data set is described as above. The note with it: for IC50 Values of Cytotoxicities, NCI: NCI (NCI-H661); for IC50: Homo sapiens, NCI-H661, read-out: IC50 Values of Cytotoxicities, NCI.
The subject of data set [9] is Hepa: human hepatoma. Described as above. The note with it: for IC50: Homo sapiens, HepA, read-out: IC50 Values of Cytotoxicities, Hepa.
Data set [10] concerns human hepatoma Hep G2 cells. As to the kind of experiment: Cell cycle analysis by flow cytometry. In kind it is cell-based. The note with it: 72 hrs. How it is done: Samples of 1×10^6 Hep G2 cells were plated on a 6 cm tissue culture dish, and the cells were allowed to recover 24 hrs before any treatment. Thereafter, DMSO or a test compound (1 μM, 10 μM or 50 μM) was added to the cells for 1 hr in complete medium at 37° C., washed twice with PBS, and incubated in fresh media for the incubation time. Cell were harvested with trypsin and washed twice with PBS. Samples were fixed in 70% ethanol and stored at 4° C. for at least 24 hrs and then washed once with Mcllvaine's buffer (0.2M Na2HPO4, 0.1M citric acid, pH=7.5) and once again with PBS. Samples were stained with PI (propidium iodide) staining solution (PBS containing 100 μg/ml, RNase A and 10 μg/ml PI [Sigma]), processed on a Coulter Elite flow cytometry, and the data analyzed with the Mutiplus AV program.
To obtain more information about the effect(s) of the acyclic enediynes according to this invention upon the growth of cells, human hepatoma Hep G2 cells or K-562 cells were used, and the growth characteristic of said cells were measured subsequent to the treatment with a test compound.
1 μM or 10 μM of compound 5 was added to the cells, and after exposure to the compounds for 72 hrs, attached cells were analyzed by flow cytometry. The majority (71.5%) of control cells exposed to DMSO were in the G0-G1 phase of cell cycle, and only a small amount of cells was detected in either the S phase (22.7%) or G2/M (5.8%) phase. Moreover, after a 72 hrs treatment with compound 5 (1 and 10 μM), cells progressed to the S phase and the majority of cell population was almost arrested at the S phase. Consistent with this cell cycle arrest, only 36.6% (1 μM) and 46.9% (10 μM) of the cells were found at the G0-G1 phase, 63.2% (1 μM) and 53.0% (10 μM) in S phase, and 0.2% (1 μM) and 0.1% (10 μM) in G2/M phase. However, the significant blockage of the Hep G2 cell cycle in S phase was observed and was induced by both concentrations (1 μM and 10 μM) of compound 5.
For orientation: In flow cytometry, cells or beads pass a laser one at a time.

For data set [11], the system named is Hela: human cervix epitheloid carcinoma.
The test system of data set [12] is Hepa: human hepatoma.
Data set [13] has as its system KB: human oral epidermoid carcinoma. As to the kind of experiment: In vitro anticancer assay (cytotoxicity), human solid tumor cells.
The target of data set [14] is T1, topoisomerase I (Homo sapiens, UniProt P11387).
T1 sequence (P11387 1-765): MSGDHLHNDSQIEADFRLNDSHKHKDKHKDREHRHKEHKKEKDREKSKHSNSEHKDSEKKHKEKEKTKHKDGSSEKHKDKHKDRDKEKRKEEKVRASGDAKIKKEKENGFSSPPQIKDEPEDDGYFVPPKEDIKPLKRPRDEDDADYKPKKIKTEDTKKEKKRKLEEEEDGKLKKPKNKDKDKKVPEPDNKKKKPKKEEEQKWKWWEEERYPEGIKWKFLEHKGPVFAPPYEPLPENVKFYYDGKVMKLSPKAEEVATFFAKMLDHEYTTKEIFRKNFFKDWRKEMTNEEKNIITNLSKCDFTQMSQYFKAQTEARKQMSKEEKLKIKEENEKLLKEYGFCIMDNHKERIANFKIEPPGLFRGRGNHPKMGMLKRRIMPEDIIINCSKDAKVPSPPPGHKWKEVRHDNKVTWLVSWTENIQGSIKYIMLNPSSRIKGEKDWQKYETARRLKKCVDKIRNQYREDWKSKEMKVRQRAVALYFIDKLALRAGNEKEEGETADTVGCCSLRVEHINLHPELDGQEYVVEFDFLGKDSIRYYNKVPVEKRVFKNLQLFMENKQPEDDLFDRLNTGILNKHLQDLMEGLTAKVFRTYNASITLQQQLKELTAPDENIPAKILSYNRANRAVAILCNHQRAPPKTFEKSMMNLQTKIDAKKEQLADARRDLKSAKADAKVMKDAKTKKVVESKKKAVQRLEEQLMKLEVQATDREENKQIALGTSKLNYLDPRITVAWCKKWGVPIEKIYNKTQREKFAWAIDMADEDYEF
Nature of the data set: Topoisomerase I course assay, cleavage of supercoiled pGEM9zf(−) DNA, gel electrophoresis. In kind it is biochemical. The note with it: 87 μM compound.

In the case of “2-(6-(2-xylenyl)-3-hexen-1,5-diyne)benzonitrile [Compound 24]”, in data set [1], the “Growth percentage, Breast cancer cell MCF-7” value is reported as 101%. Further, the “Growth percentage, Non-small cell Lung cancer cell NCI-H460” value in [2] is on record as 129%. Moreover, the “Growth percentage, CNS cancer cell SF-268” value in data set [3] was 111%.
As usually defined, the IC50 is the concentration that gives 50% inhibition. For the molecule `N#Cc1ccccc1C#C/C=C\C#CCOC1CCCCO1` (stereo not shown) [Compound 1, 2-(7-(Tetrahydropyranyloxy)-3(Z)-hepten-1,5-diynyl)-benzonitrile], the IC50 in data set [4] is 0.1 µM; in data set [5] it was over 10 µM. In addition, the “IC50 Values of Cytotoxicities, Hela” value in [6] stood at 9.97 µg/mL. In [7], the “IC50 Values of Cytotoxicities, DLD” value came to 8.61 µg/mL. Besides, the “IC50 Values of Cytotoxicities, NCI” value in [8] was “—* (“—” means IC50 >20 μg/ml)”. Moreover, the “IC50 Values of Cytotoxicities, Hepa” value in data set [9] turned out to be 14.26 µg/mL.
With `N#Cc1ccccc1C#C/C=C\C#CCCCOC1CCCCO1` (stereo not shown) [Compound 2, 2-(9-(Tetrahydropyranyloxy)-3(Z)-nonen-1,5-diynyl)-benzonitrile], the IC50 in [4] is under 0.01 µM; in [5], over 10 µM. The “IC50 Values of Cytotoxicities, Hela” value in [6] amounted to 10.62 µg/mL. Further, the “IC50 Values of Cytotoxicities, DLD” value in data set [7] was “— (“—” means IC50 >20 μg/ml)”. Further, in [8], the “IC50 Values of Cytotoxicities, NCI” value is “— (“—” means IC50 >20 μg/ml)”. Moreover, the “IC50 Values of Cytotoxicities, Hepa” value in data set [9] is 14.66 µg/mL.
Regarding `CCCCC#C/C=C\C#Cc1ccccc1C#N` [Compound 3, 2-(3(Z)-Decen-1,5-diynyl)benzonitrile], the IC50 was under 0.01 µM in [4]; 17 µM in [5]; over 20 µg/mL in data set [6]; 5.03 µg/mL (≈ 21.6 µM) in [7]; over 20 µg/mL in [8]; 12.5 µg/mL (≈ 53.5 µM) in [9].
`CCCCCC#C/C=C\C#Cc1ccccc1C#N` [Compound 4, 2-(3(Z)-Undecen-1,5-diynyl)benzonitrile]: the IC50 is under 0.01 µM in data set [4]; over 10 µM in data set [5]; 6.38 µg/mL (≈ 25.8 µM) in [6]; over 20 µg/mL in data set [7]; over 20 µg/mL in [8]; 7.28 µg/mL (≈ 29.4 µM) in data set [9].
In the case of `N#Cc1ccccc1C#C/C=C\C#Cc1ccccc1` [Compound 5, 2-(6-phenyl-3(Z)-hexen-1,5-diynyl)benzonitrile], the “cells at the G0-G1 phase” value in data set [10] (1 μM) is listed as 36.6%; in [10] (10 μM) it was 46.9%. Moreover, the “cells in G2/M phase” value was 0.2% in data set [10] (1 μM) and 0.1% in [10] (10 μM). For the same molecule, the “cells in S phase” value is given as 63.2% in data set [10] (1 μM) and 53.0% in data set [10] (10 μM). Moreover, the IC50 in data set [6] is over 20 µg/mL; in data set [7], over 20 µg/mL; in [8], 7.01 µg/mL (≈ 27.7 µM); in data set [9], 1.09 µg/mL (≈ 4.3 µM).
Take `CCCCC#C/C=C\C#Cc1ccc(Cl)cc1` [Compound 13]: the “IC50 Values of Cytotoxicities, Hela” value in data set [11] was found to be 9.83 µg/mL. For the same molecule, the “IC50 Values of Cytotoxicities, Hepa” value in data set [12] is given as “— (key: “—” means IC50 >20 μg/ml)”. Also, the “IC50 Values of Cytotoxicities, KB” value in [13] is reported as “— (“—” means IC50 >20 μg/ml)”. Further, the “IC50 Values of Cytotoxicities, NCI” value in data set [8] is 8.00 µg/mL.
Take `CCCCCCC#C/C=C\C#Cc1ccc(C(C)=O)cc1` [Compound 23, 4-(3-(Z)-Dodecen-1,5-diynyl)acetophenone]: the “inhibition of topo I” value in data set [14] was “displayed inhibitory activities of topo I”. For the same molecule, the “IC50 Values of Cytotoxicities, Hela” value in [11] is recorded as “— (key: “—” means IC50 >20 μg/ml)”. In addition, in data set [12], the “IC50 Values of Cytotoxicities, Hepa” value is “— (key: “—” means IC50 >20 μg/ml)”. For the same molecule, the “IC50 Values of Cytotoxicities, DLD” value in [7] is on record as “— (“—” means IC50 >20 μg/ml)”. In data set [8], the “IC50 Values of Cytotoxicities, NCI” value is 13.13 µg/mL.
As for `Cc1ccc(C#CC=CC#Cc2ccccc2C#N)cc1` [Compound 28, 2-(6-(4-tolyl)-3-hexen-1,5-diynyl)benzonitrile], in [1], the “Growth percentage, Breast cancer cell MCF-7” value turned out to be 80%. Also, the “Growth percentage, Non-small cell Lung cancer cell NCI-H460” value in [2] came out at 96%. The “Growth percentage, CNS cancer cell SF-268” value in data set [3] came out at 105%.
For `N#Cc1ccccc1C#CC=CC#Cc1cccs1` [Compound 29, 2-(6-(2-thienyl)-3-hexen-1,5-diynyl)benzonitrile], in [1], the “Growth percentage, Breast cancer cell MCF-7” value is on record as 49%. The “Growth percentage, Non-small cell Lung cancer cell NCI-H460” value in data set [2] was 34%. In data set [3], the “Growth percentage, CNS cancer cell SF-268” value stood at 96%.
For `N#Cc1ccccc1C#CC=CC#Cc1ccc(N)cc1` [Compound 33, 2-[6-(p-anilinyl)-3-hexen-1,5-diynyl]benzonitrile], in that order: 100%, 94% and 92%.
